The values below come from ChEMBL document CHEMBL1152560, “Substituted 2-arylbenzothiazoles as kinase inhibitors: hit-to-lead optimization” (Bioorg Med Chem, 2009).

Experiment [1] deals with T1, Serine/threonine-protein kinase Nek1 (Homo sapiens) (UniProt Q96PY6).
T1 sequence (whole entry): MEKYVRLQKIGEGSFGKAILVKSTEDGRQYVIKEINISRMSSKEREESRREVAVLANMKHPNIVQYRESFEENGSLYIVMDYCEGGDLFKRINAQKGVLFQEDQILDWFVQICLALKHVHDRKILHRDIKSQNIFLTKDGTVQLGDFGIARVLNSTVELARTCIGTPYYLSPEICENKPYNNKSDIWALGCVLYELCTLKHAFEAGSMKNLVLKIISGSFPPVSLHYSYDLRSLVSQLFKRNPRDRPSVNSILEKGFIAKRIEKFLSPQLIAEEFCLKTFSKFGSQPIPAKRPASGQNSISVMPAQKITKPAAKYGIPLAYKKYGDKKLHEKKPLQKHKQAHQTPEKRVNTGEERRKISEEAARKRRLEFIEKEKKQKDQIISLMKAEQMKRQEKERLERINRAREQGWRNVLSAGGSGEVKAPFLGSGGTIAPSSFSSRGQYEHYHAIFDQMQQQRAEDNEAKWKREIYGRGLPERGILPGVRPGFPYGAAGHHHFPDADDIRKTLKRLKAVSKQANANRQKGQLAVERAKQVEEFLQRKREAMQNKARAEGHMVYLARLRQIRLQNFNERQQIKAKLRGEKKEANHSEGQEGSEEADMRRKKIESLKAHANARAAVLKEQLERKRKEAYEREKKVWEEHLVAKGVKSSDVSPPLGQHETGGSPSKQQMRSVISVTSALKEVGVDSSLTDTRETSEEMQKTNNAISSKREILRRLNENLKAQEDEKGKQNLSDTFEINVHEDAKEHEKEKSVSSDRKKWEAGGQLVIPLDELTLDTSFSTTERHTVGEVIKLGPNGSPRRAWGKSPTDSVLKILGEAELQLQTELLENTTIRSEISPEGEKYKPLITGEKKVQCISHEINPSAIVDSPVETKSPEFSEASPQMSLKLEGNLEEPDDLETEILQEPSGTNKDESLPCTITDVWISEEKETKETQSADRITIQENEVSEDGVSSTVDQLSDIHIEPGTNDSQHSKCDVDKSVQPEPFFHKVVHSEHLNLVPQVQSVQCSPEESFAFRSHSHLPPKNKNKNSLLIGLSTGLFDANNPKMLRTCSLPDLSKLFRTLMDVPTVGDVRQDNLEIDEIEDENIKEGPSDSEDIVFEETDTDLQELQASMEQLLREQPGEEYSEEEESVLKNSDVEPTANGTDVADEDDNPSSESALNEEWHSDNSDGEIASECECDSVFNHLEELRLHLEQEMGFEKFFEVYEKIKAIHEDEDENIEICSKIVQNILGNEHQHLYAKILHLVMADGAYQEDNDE
The experiment can be described thus: Residual activity of NEK1 at 1 uM by microplate scintillation counting.

For experiment [2], the target named is Tyrosine-protein kinase Fyn (Homo sapiens) (UniProt P06241). In words: Residual activity of FYN at 1 uM by microplate scintillation counting.
Experiment [3] concerns the target Serine/threonine-protein kinase PLK2 (Homo sapiens) (UniProt Q9NYY3). The experiment can be described thus: Residual activity of SNK at 0.1 uM by microplate scintillation counting.
The target of experiment [4] is T2, Muscle, skeletal receptor tyrosine-protein kinase (Homo sapiens) (UniProt O15146).
T2 sequence (whole entry): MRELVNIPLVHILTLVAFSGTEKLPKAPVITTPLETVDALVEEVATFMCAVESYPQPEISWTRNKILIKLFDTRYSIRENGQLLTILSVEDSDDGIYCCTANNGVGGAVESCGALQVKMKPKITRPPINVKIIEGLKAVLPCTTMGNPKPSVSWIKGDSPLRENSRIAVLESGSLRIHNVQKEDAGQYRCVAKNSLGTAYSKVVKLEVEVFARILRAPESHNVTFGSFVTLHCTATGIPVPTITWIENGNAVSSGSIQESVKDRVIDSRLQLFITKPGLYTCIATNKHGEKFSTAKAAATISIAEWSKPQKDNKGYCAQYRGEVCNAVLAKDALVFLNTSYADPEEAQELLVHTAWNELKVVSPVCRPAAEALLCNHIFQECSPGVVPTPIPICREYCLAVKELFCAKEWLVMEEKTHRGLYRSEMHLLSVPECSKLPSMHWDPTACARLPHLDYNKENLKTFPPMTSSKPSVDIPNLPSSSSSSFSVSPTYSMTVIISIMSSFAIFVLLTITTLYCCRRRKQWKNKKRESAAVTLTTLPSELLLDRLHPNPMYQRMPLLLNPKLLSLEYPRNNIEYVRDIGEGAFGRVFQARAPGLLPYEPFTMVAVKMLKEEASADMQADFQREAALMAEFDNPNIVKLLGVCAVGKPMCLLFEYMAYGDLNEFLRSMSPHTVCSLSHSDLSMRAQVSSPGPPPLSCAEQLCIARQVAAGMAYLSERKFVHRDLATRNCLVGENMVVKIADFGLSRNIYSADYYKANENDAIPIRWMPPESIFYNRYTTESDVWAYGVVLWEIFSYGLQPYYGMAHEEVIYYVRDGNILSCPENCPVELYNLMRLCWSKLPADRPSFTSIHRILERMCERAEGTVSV
The experiment can be described thus: Residual activity of MUSK at 10 uM by microplate scintillation counting.

For experiment [5], the target named is SRSF protein kinase 2 (Homo sapiens) (UniProt P78362). In words: Residual activity of SRPK2 at 1 uM by microplate scintillation counting.
Sequence of SRSF protein kinase 2 (Homo sapiens) (P78362 whole entry, looked up): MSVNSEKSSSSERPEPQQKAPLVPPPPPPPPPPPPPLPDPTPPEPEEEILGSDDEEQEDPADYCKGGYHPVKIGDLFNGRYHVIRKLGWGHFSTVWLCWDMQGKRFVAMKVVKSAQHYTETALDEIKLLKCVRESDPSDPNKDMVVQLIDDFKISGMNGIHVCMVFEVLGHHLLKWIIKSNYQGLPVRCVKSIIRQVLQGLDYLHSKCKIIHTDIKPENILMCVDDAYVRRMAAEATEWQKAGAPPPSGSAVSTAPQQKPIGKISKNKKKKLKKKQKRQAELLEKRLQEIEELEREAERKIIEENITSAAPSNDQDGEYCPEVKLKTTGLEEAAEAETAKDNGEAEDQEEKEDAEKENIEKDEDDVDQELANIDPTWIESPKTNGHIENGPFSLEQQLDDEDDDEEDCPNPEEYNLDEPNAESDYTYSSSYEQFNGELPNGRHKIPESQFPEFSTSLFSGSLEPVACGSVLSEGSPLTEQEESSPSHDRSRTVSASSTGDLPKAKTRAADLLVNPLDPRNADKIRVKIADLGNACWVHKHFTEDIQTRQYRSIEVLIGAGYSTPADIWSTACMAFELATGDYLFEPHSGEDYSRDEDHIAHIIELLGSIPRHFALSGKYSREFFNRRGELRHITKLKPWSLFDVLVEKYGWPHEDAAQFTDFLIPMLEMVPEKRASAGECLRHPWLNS

Sequence of Tyrosine-protein kinase Fyn (Homo sapiens) (P06241 2-537 limits assumed): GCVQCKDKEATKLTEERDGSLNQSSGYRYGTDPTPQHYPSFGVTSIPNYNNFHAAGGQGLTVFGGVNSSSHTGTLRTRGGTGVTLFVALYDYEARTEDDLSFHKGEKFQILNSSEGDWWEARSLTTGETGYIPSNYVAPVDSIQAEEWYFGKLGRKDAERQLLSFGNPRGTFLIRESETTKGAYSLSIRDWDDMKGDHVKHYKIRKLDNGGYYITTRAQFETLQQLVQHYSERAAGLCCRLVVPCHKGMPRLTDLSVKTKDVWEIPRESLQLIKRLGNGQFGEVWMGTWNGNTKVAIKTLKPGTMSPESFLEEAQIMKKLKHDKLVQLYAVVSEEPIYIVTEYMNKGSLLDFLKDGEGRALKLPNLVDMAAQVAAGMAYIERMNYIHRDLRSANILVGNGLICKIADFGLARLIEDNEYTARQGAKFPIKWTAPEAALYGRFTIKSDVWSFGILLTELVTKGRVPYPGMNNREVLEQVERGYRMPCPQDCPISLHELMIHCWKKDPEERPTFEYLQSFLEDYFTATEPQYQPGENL
Sequence of Serine/threonine-protein kinase PLK2 (Homo sapiens) (Q9NYY3 whole entry, looked up): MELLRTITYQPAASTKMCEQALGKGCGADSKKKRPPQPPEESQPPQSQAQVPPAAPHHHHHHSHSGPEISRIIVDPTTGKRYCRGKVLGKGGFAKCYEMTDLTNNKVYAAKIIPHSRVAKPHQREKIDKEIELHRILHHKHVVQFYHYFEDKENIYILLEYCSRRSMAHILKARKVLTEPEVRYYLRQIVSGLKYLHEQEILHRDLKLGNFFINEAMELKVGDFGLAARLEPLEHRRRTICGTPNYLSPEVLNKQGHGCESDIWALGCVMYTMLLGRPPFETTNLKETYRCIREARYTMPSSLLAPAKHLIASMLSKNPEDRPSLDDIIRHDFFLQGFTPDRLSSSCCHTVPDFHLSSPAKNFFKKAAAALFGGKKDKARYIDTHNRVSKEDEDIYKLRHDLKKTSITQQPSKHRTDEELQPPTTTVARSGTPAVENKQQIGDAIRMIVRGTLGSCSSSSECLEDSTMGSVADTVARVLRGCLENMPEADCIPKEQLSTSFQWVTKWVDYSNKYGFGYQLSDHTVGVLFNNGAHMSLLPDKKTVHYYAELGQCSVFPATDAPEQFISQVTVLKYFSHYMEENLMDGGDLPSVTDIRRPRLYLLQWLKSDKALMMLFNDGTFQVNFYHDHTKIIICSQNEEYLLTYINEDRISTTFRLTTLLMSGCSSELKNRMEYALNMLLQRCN

For `COc1cc2c(Oc3ccc(-c4nc5ccccc5s4)cc3F)ncnc2cc1OCCCN1CCN(C)CC1`, the residual activity in experiment [1] was 94%; in experiment [2] it was 106%; in experiment [3], 89%; in experiment [4], 41%; in experiment [5], 107%.

Take `COc1cc2c(Oc3ccc(-c4nc5ccccc5s4)cc3)ncnc2cc1OCCCN1CCN(C)CC1`: the residual activity was found to be 85% in experiment [1]; 105% in experiment [2]; 89% in experiment [3]; 44% in experiment [4]; 115% in experiment [5].

As for `COc1cc2c(Oc3ccc(-c4nc5ccccc5s4)cc3)ncnc2cc1OCCCN1CCCC1`, the residual activity stood at 85% in experiment [1]; 106% in experiment [2]; 108% in experiment [3]; 46% in experiment [4]; 97% in experiment [5].

As a reminder, the residual activity is the signal under treatment as a percentage of the control signal.
